Entries after “also recorded” stand apart in the source; their conditions may differ.
Key:
hiPS cells [1] = test: Cell viability under suspension culture; assay type: cell-based, human; conditions: hPS cells in suspension, 2 days, various concentrations
Description: For the evaluation of cell viability under suspension culture, hES or hiPS cells were plated at 5×10^5 in non-tissue culture-treated 6-well plates with non-conditioned standard hESm containing blebbistatin or Y-27632 at different concentrations in triplicates. After 2 days, cells were harvested with trypsinization and extensive trituration by pipetting, and the number of live cells was manually counted by using hemocytometer and trypan blue staining. The cell survival ratio (%) represents the ratio of the number of live cells to the number of cells plated. The same samples were subjected to TUNEL assay for side by side comparison with the data from cell viability assay.

hiPS cells [2] = test: Cell viability assay under adherence conditions (trypan blue live cell counting); assay type: cell-based, human
Description: hES or hiPS cells were plated at 1×10^5 cells/well on 12-well plates coated with PDL or Matrigel in mTeSR in the presence or absence of blebbistatin or Y-27632 at various concentrations in triplicates. DMSO (solvent for blebbistatin) was also added in the control condition and found to have no effect on viability. For mES cells, cells were plated under the same condition except for the use of gelatin coating and mES medium. After 24 h, cells were harvested, trypsinized to single cells, and counted by hemocytometer. Cell counting was performed independently by two researchers to confirm the consistency. The same samples were used for TUNEL assay immediately after taking a small fraction of the sample for cell counting.

mES cells = test: Cell-cell contact of mES cells (morphology, cell contact index); assay type: cell-based, mouse
Excerpt: Rho and Rho-associated kinase (Rock) play a role in regulation of cell-cell interactions in pluripotent stem cells. In order to further explore the core mechanism underlying cell-cell adhesions, principle regulators downstream of Rock were examined. Based on functional prescreening non-muscle myosin II was identified as an effector by siRNA-mediated loss of function analysis. Non-muscle Myosin II (myosin II), the two-headed conventional myosin, consists of non-muscle myosin II heavy chain (NMHC) dimers and two sets of myosin light chains (MLCs). […] Among them, all the genes except IIC are expressed in pluripotent stem cells whereas differentiated cells express all three isoforms. […] The specificity and levels of knockdown of the target genes by each siRNA were confirmed by quantitative RT-PCR (QPCR) (FIG. 2). Myosin phosphatase target subunit 1 (MYPT1), a major downstream target of Rock that negatively regulates myosin function through […] of myosin regulatory light chain (MRLC) was examined. MYPT1 was exclusively localized to cell-cell contact sites in mES cells (FIG. 1B). If Rock controls the myosin function through inhibition of MYPT1, depletion of MYPT1 would rescue the intrinsic cell-cell interactions from the robust effect of Y27632 (FIG. 1C).

hES cells = test: Cell-cell contact of hES cells (morphology, cell contact index); assay type: cell-based, human; conditions: hES cells grown on Matrigel
Description: Rock and myosin II regulate cell-cell interactions in hES cells. To test whether the observed function of RRM signaling in cell-cell contacts in mES cells is conserved in hES cells, H1 cells grown under the feeder-free condition with Matrigel™ and conditioned medium (CM) (FIG. 3A) were treated with C3 exoenzyme. […] Rock-inhibitor treatment also led to cell adhesion defects although it required a higher concentration (20 μM) than that (10 μM) for mES cells (FIG. 3C). Myosin IIA and IIB were colocalized with cell-cell borders in hES cells, which indicates their potential role in cell-cell adhesions (FIG. 3D).

hiPS cells [3] = test: Cell growth assay (population doubling time); assay type: cell-based, human; conditions: hiPS cells on PDL in mTeSR, compound at 5 μM
Description: For the cell growth assay, hiPS or hES cells were plated at 2.5×10^4 cells/cm^2 on plates coated with PDL or Matrigel in mTeSR in the presence of blebbistatin at 5 μM or Y-27632 at 5 μM (PDL) or in the absence of compounds (Matrigel). Cells were harvested at the indicated time points, stained with trypan blue, and counted by the hemocytometer.

Structure (SMILES) | Effect on survival in suspension culture (hiPS cells [1]) | Effect on cell survival (hiPS cells [2]; hiPS cells on PDL-coated dishes, different concentrations) | Concentration that disassembled cell-cell junctions (mES cells) | Number of viable cells (hiPS cells [2]; hiPS cells on PDL, 10 μM, 24 h after plating 1×10^5 cells/well, n=3) | Concentration that disassembled cell-cell junctions (hES cells) | Population doubling time (hiPS cells [3])
O=S(=O)(c1cccc2c(I)cccc12)N1CCCNCC1 [ML-7] | did not show a significant effect on survival; also recorded: No difference in the survival rate | No significant increase in cell survival |  |  |  | 
C[C@@H](N)[C@H]1CC[C@H](C(=O)Nc2ccncc2)CC1 [Y-27632] |  |  | 10 µM | 7.2±1.1×10^4 cells | 20 µM | ~32.2 h

Reference: patent US8609417B2, “Methods and compositions for stem cell cultures” (The Regents of the University of California, priority 2009, dated 2013)
